The record followed here is US7875601B2, “Cancer treatment with epothilones” (Novartis AG, priority 1998, dated 2011).

For this series, the system named is human HCT-15 colon carcinoma. Put plainly: Antitumor effect against s.c. transplanted HCT-15 tumors. The class given is in vivo, female BALB/c nude mice. The source says: Human colorectal adenocarcinoma cell line HCT-15 (ATCC CCL 225) is from the American Type Culture Collection (Rockville, Md., USA), and the cells are cultivated in vitro as recommended by the supplier. HCT-15 is an epithelial-like cell line. (Cancer Res. 39: 1020-25 [1979]) that is multi-drug resistant by virtue of over-expression of P-glycoprotein (P-gp, gp170, MDR-1;Anticancer Res. 11: 1309-12 [1991]; J. Biol. Chem. 264: 18031-40 [1989]; Int. J. Cancer 1991; 49: 696-703 [1991]) and glutathione-dependent resistance mechanisms (Int. J. Cancer 1991; 49: 688-95 [1991]).
Female or male BALB/c nu/nu (nude) mice are kept under sterile conditions (10 to 12 mice per Type III cage) with free access to food and water. Mice weigh between 20 and 25 grams at the time of tumor implantation. Tumors are established by subcutaneous injection of cells (minimum 2×10^6 cells in 100 μl PBS or medium) in carrier mice (4-8 mice per cell line). The resulting tumors are serially passaged for a minimum of three consecutive transplantations prior to start of treatment. Tumor fragments (approx. 25 mg) are implanted s.c. into the left flank of animals with a 13-gauge trocar needle while the mice are exposed to Forene (Abbott, Switzerland) anesthesia.
Tumor growth and body weights are monitored once or twice weekly. All treatments are administered intravenously (i.v.) and are initiated when a mean tumor volume of approximately 100 to 250 mm^3 is attained, depending upon the tumor type. Tumor volumes are determined using the formula […] (see Cancer Chemother. Pharmacol. 24:148-154, [1989]). Treatments with epothilone B vary the dose and the frequency of administration. Comparator agents are administered according to previously determined optimal treatment regimens. In addition to presenting changes in tumor volumes over the course of treatment, antitumor activity is expressed as T/C % (mean increase of tumor volumes of treated animals divided by the mean increase of tumor volumes of control animals multiplied by 100). Tumor. regression (%) represents the smallest mean tumor volume compared to the mean tumor volume at the start of treatment, according to the formula Regression (%)=(1−Vend/Vstart)×100(Vend=final mean tumor volume, Vstart=mean tumor volume at the start of treatment. Any animals in which the tumor has reached a size exceeding approximately 1.5 to 2.5 cm^3 are sacrificed. Details can be found below.
Tumor volumes are used as the primary indicator of activity of antitumor agents used alone or in combination, and changes in body weights are measured as an indicator of treatment tolerability.

Where [1] appears, read: 4 mg/kg, i.v. once on day 14, mean ± SEM.

“Also recorded” adds a separate entry of the source.

As for `C/C(=C\c1csc(C)n1)[C@@H]1C[C@@H]2O[C@]2(C)CCC[C@H](C)[C@H](O)[C@@H](C)C(=O)C(C)(C)[C@@H](O)CC(=O)O1` [epothilone B], for the setting “4 mg/kg, i.v. once on day 14”, the Regression is −61%, the “Survival (No. alive/total)” value is recorded as 8/8 and the T/C entry is on record as “tumor regressions; also recorded: Regression”. Besides, under setting [1], the “% Body Weight Change” value stood at 2 ± 2%, the “D Body Weight” value amounted to 0.4 ± 0.3 g and the “D Tumor Volume (mm^3)” value is −97 ± 25 mm^3. In addition, the “mortalities due to treatment” value (single 4 mg/kg dose) is given as “No mortalities due to treatment”.
